For 1 compound, Activity and DC50 results are on record in ChEMBL document CHEMBL4321854, “Discovery of a First-in-Class Mitogen-Activated Protein Kinase Kinase 1/2 Degrader” (J Med Chem, 2019).

For data set [1], the target named is T1, von Hippel-Lindau disease tumor suppressor/Dual specificity mitogen-activated protein kinase kinase 1 (Homo sapiens) (UniProt Q02750+P40337). The experiment in a line: Protac activity against VHL/MEK1 in human HT-29 cells harboring with BRAF V600E variant assessed as degradation of MEK1 by measuring reduction in MEK1 protein level at 0.3 uM after 8 hrs by Western blot analysis relative to control. Format: cell-based. Also on record: scale not given: the % may be the effect or the level left. (Immunoblotting shows a protein as a band on a membrane.)
T1 sequence (P40337 whole entry, looked up): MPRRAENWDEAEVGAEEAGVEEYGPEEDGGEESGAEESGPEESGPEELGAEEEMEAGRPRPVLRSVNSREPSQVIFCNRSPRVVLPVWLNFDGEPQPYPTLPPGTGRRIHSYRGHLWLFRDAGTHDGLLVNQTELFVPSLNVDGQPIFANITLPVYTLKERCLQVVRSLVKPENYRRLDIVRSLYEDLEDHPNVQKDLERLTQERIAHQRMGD
T1 sequence (Q02750 whole entry, looked up): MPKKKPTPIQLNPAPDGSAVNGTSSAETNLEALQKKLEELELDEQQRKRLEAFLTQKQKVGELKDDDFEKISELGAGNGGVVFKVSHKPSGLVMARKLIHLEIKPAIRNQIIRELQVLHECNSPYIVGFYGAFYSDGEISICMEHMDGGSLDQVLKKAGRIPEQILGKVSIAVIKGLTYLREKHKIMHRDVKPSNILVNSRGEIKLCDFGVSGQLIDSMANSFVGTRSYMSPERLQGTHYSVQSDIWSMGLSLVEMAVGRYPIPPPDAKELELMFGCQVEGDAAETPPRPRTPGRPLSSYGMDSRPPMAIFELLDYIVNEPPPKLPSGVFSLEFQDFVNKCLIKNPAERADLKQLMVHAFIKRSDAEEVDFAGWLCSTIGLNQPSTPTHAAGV

Data set [2] concerns the target T2, von Hippel-Lindau disease tumor suppressor/Dual specificity mitogen-activated protein kinase kinase 2 (Homo sapiens) (UniProt P36507+P40337). Nature of the data set: Protac activity against VHL/MEK2 in human SK-MEL-28 cells harboring with BRAF V600E variant assessed as degradation of MEK2 at 0.1 to 0.3 uM after 4 hrs by Western blot analysis. Type of data set: cell-based.

Data set [3] has as its target T3, von Hippel-Lindau disease tumor suppressor/Dual specificity mitogen-activated protein kinase kinase 2/Dual specificity mitogen-activated protein kinase kinase 1 (Homo sapiens) (UniProt P36507+Q02750+P40337). Nature of the data set: Protac activity against VHL/MEK1/2 in human HT-29 cells harboring with BRAF V600E variant assessed as reduction in phosphorylation of MEK at S218/222 residues at 0.3 uM incubated for 6 days by Western blot analysis. Format: cell-based.

Data set [4] concerns the target von Hippel-Lindau disease tumor suppressor/Cullin-9 (Homo sapiens) (UniProt P40337+Q8IWT3). The experiment in a line: Protac activity against VHL/cullin9 in human HT-29 cells harboring with BRAF V600E variant assessed as cullin9 protein level at 0.1 uM after 10 hrs by Western blot analysis. Format: cell-based.
For data set [5], the target named is T3, von Hippel-Lindau disease tumor suppressor/Dual specificity mitogen-activated protein kinase kinase 2/Dual specificity mitogen-activated protein kinase kinase 1 (Homo sapiens). Nature of the data set: Protac activity against VHL/MEK1/2 in human SK-MEL-28 cells harboring with BRAF V600E variant assessed as phosphorylation of ERK at T202/Y204 residues at 0.3 uM pretreated with proteasome inhibitor, MG-132 for 2 hrs followed by incubation with compound for 10 hrs by Western blot analysis. Format: cell-based.

The target in data set [6] is T2, von Hippel-Lindau disease tumor suppressor/Dual specificity mitogen-activated protein kinase kinase 2 (Homo sapiens). Nature of the data set: Protac activity against VHL/MEK2 in human HT-29 cells harboring with BRAF V600E variant assessed as degradation of MEK2 by measuring MEK2 protein level at 0.3 uM pretreated with proteasome inhibitor, MG-132 for 2 hrs followed by incubation with compound for 10 hrs by Western blot analysis. Type of data set: cell-based.

Data set [7] has as its target T1, von Hippel-Lindau disease tumor suppressor/Dual specificity mitogen-activated protein kinase kinase 1 (Homo sapiens). Nature of the data set: Protac activity against VHL/MEK1 in human HT-29 cells harboring with BRAF V600E variant assessed as degradation of MEK1 by measuring MEK1 protein level at 0.3 uM pretreated with MEK1/2 inhibitor, PD0325901 for 2 hrs followed by incubation with compound for 10 hrs by Western blot analysis. Format: cell-based.

For data set [8], the target named is T3, von Hippel-Lindau disease tumor suppressor/Dual specificity mitogen-activated protein kinase kinase 2/Dual specificity mitogen-activated protein kinase kinase 1 (Homo sapiens). The experiment in a line: Protac activity against VHL/MEK1/2 in human HT-29 cells harboring with BRAF V600E variant assessed as phosphorylation of MEK at S218/222 residues at 0.3 uM pretreated with VHL ligand, VH 032 for 2 hrs followed by incubation with compound for 10 hrs by Western blot analysis. Type of data set: cell-based.

The target is the same in data set [9]. The experiment in a line: Protac activity against VHL/MEK1/2 in human COLO205 cells harboring with BRAF V600E variant assessed as reduction in phosphorylation of MEK at S218/222 residues after 24 hrs by Western blot analysis. Format: cell-based.
The target in data set [10] is von Hippel-Lindau disease tumor suppressor/Dual specificity mitogen-activated protein kinase kinase 2 (Homo sapiens, UniProt P36507+P40337, V600E). Nature of the data set: (§1) Protac activity against VHL/MEK2 in human HT-29 cells harboring BRAF V600E variant assessed as degradation of MEK2 after 24 hrs by Western blot analysis. Format: cell-based.
von Hippel-Lindau disease tumor suppressor/Dual specificity mitogen-activated protein kinase kinase 2, sequence (P36507 whole entry, looked up, stated change not applied): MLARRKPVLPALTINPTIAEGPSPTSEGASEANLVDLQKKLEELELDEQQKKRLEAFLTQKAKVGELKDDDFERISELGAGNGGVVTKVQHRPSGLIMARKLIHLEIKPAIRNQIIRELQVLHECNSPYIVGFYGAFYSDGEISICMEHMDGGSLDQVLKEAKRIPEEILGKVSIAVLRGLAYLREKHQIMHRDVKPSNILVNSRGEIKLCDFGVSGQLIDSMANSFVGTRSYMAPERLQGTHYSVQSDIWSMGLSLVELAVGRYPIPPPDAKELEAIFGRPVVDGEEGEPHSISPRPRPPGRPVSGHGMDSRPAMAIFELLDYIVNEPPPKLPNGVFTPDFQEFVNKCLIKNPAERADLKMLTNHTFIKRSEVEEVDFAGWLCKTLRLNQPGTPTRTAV
von Hippel-Lindau disease tumor suppressor/Dual specificity mitogen-activated protein kinase kinase 2, sequence (P40337 whole entry, looked up, stated change not applied): as the sequence (P40337 whole entry, looked up) above
The target in data set [11] is T2, von Hippel-Lindau disease tumor suppressor/Dual specificity mitogen-activated protein kinase kinase 2 (Homo sapiens). The data set is described as §1. Type of data set: cell-based.
Data set [12] has the same target. Nature of the data set: Protac activity against VHL/MEK2 in human HT-29 cells harboring with BRAF V600E variant assessed as degradation of MEK2 by measuring MEK2 protein level at 0.3 uM pretreated with NEDD8-activating enzyme inhibitor, MLN4924 for 2 hrs followed by incubation with compound for 10 hrs by Western blot analysis. Type of data set: cell-based.
The nature of data set [13]: Toxicity in Swiss albino mouse assessed as effect on clinical signs at 50 mg/kg, ip. Format: organism-based. Particulars: in vivo.

The source made the active and inactive calls. The rule behind the calls is not given here.

T2 sequence (P36507 whole entry, looked up): as the sequence (P36507 whole entry, looked up, stated change not applied) above
T2 sequence (P40337 whole entry, looked up): as the sequence (P40337 whole entry, looked up) above
T3 sequence (P36507 whole entry, looked up): as the sequence (P36507 whole entry, looked up, stated change not applied) above
T3 sequence (P40337 whole entry, looked up): as the sequence (P40337 whole entry, looked up) above
T3 sequence (Q02750 whole entry, looked up): as the sequence (Q02750 whole entry, looked up) above
von Hippel-Lindau disease tumor suppressor/Cullin-9 (Homo sapiens), sequence (P40337 whole entry, looked up): as the sequence (P40337 whole entry, looked up) above
von Hippel-Lindau disease tumor suppressor/Cullin-9 (Homo sapiens), sequence (Q8IWT3 whole entry, looked up): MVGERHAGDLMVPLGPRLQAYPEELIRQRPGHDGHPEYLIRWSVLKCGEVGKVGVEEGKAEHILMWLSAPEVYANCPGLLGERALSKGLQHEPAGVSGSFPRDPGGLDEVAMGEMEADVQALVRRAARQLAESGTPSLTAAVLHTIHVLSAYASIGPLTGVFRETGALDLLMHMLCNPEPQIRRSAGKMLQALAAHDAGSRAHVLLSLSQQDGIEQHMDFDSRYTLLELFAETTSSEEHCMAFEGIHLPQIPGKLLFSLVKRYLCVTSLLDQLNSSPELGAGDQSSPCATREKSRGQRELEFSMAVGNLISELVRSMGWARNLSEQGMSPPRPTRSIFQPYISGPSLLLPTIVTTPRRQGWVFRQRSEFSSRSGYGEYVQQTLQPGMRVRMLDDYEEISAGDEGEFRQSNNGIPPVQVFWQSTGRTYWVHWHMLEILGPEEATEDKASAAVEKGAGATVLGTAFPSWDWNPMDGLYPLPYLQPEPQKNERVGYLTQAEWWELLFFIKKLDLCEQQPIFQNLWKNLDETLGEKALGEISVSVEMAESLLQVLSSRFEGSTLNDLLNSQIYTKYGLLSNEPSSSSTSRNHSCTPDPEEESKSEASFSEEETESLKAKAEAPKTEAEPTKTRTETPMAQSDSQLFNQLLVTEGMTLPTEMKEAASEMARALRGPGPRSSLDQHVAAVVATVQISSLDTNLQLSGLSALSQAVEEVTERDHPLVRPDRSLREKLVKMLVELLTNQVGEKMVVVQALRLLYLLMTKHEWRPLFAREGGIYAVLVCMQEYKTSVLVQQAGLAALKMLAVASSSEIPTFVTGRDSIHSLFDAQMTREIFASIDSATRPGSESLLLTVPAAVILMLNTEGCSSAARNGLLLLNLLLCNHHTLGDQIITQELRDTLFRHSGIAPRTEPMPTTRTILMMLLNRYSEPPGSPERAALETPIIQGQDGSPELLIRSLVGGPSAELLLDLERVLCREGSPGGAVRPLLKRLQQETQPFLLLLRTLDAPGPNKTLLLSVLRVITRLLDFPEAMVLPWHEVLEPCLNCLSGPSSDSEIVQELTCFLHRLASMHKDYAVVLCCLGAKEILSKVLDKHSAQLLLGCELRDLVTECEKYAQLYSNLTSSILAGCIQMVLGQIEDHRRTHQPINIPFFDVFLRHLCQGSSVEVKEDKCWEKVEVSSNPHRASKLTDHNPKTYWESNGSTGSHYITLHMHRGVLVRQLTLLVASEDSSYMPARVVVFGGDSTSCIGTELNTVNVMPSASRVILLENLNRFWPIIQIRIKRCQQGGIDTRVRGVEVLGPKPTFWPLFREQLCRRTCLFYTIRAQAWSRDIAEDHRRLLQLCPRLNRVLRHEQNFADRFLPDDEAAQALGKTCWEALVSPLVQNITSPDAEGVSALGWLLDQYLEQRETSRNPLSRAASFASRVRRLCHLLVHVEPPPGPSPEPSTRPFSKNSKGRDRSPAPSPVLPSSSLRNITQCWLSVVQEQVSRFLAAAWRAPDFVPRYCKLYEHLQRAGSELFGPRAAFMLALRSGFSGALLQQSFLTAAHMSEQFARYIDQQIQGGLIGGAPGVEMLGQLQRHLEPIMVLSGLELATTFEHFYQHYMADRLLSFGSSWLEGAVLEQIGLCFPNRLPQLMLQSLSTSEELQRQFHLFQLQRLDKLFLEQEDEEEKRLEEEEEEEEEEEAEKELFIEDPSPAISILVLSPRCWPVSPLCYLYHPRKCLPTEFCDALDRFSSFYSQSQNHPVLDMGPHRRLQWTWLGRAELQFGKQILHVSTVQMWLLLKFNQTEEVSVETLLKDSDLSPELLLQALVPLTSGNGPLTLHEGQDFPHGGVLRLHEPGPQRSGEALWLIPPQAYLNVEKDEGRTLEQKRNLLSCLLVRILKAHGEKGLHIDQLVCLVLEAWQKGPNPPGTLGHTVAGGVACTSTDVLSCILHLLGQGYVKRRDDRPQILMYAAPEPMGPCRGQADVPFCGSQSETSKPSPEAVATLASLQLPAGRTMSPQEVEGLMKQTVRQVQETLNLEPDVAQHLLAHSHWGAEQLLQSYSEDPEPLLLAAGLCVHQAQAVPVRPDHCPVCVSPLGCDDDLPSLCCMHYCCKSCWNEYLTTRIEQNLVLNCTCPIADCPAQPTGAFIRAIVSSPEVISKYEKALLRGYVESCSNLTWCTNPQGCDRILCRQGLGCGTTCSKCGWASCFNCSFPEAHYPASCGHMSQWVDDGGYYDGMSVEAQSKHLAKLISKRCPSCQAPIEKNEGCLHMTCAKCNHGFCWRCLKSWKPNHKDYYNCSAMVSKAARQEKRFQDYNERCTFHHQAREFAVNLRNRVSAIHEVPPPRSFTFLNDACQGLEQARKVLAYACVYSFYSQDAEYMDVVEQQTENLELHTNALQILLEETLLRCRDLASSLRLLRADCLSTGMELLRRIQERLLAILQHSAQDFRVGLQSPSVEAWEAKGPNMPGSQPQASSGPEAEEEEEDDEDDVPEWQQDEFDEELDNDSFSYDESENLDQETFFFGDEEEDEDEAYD

For the compound `Cc1ncsc1-c1ccc([C@H](C)NC(=O)[C@@H]2C[C@@H](O)CN2C(=O)[C@@H](NC(=O)CCCCCCCCCCNCCCONC(=O)c2ccc(F)c(F)c2Nc2ccc(I)cc2F)C(C)(C)C)cc1`, the Activity in data set [1] was more than 80%; in [9] it was “Dose-dependent effect”; in data set [11] it was “Dose-dependent effect”; in data set [13] it was “Non-Toxic”. The result in data set [2] and in data set [3] was Active. In addition, the outcome in [4], in data set [5], in [6], in data set [7], in data set [8] and in data set [12] was inactive. In addition, the DC50 (commonly the concentration at which degradation of the target reaches its halfway point) in data set [10] is 17 nM.
